# How the values were obtained:
# Serine protease 1 = molecular target: T1, Serine protease 1 (Bos taurus, UniProt P00760); assay: Inhibitory effect of compound was measured in bovine trypsin
# T1 sequence (P00760 whole entry): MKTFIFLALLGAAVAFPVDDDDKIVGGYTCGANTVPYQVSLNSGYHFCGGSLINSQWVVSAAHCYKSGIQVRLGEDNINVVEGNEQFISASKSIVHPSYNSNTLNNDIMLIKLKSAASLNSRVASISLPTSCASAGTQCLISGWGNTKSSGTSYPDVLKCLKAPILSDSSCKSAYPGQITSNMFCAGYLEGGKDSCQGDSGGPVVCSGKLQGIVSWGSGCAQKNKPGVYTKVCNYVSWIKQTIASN
# Prothrombin = Prothrombin (Bos taurus, UniProt P00735); assay: Inhibitory effect against bovine thrombin
# [1] = Ratio of inhibitory effect of bovine trypsin to that of bovine thrombin
Compound,Ki (Serine protease 1),Ki (Prothrombin),Ratio [1]
N=C(NO)c1ccc(C[C@H](NS(=O)(=O)c2ccc3ccccc3c2)C(=O)N2CCCCCC2)cc1,316 µM,1.14 µM,
CNC(=N)c1ccc(C[C@@H](NC(=O)CNS(=O)(=O)c2ccc3ccccc3c2)C(=O)N2CCCCC2)cc1,,,19
CCNC(=N)c1ccc(C[C@H](NS(=O)(=O)c2ccc3ccccc3c2)C(=O)N2CCCCCC2)cc1,,13.6 µM,
CN=C(N)c1ccc(C[C@@H](NC(=O)CNS(=O)(=O)c2ccc3ccccc3c2)C(=O)N2CCCCC2)cc1,81.5 µM,4.32 µM,
NN=C(N)c1ccc(C[C@@H](NC(=O)CNS(=O)(=O)c2ccc3ccccc3c2)C(=O)N2CCCCCC2)cc1,,2.7 µM,
N=C(N)c1ccc(C[C@H](NS(=O)(=O)c2ccc3cc4ccccc4cc3c2)C(=O)N2CCCCCC2)cc1,,0.05 µM,
N=C(NN)c1ccc(C[C@H](NS(=O)(=O)c2ccc3ccccc3c2)C(=O)N2CCCCCC2)cc1,3.73 µM,0.00147 µM,2540
N=C(NN)c1ccc(C[C@@H](NC(=O)CNS(=O)(=O)c2ccc3ccccc3c2)C(=O)N2CCCCC2)cc1,,,36
CN=C(N)c1ccc(C[C@H](NS(=O)(=O)c2ccc3ccccc3c2)C(=O)N2CCCCCC2)cc1,545 µM,0.0455 µM,
CNC(=N)c1ccc(C[C@H](NS(=O)(=O)c2ccc3ccccc3c2)C(=O)N2CCCCCC2)cc1,,,12000
N/C(=N\O)c1ccc(C[C@H](NS(=O)(=O)c2ccc3ccccc3c2)C(=O)N2CCCCCC2)cc1,,,277
N=C(N)c1ccc(C[C@@H](NC(=O)CNS(=O)(=O)c2ccc3ccccc3c2)C(=O)N2CCCCC2)cc1,,0.0065 µM,
N=C(N)c1ccc(C[C@H](NS(=O)(=O)c2ccc3ccccc3c2)C(=O)N2CCCCCC2)cc1,8.65 µM,0.0524 µM,166
N=C(N)c1ccc(C[C@@H](NC(=O)CNS(=O)(=O)c2ccc3ccccc3c2)C(=O)N2CCCCCC2)cc1,,0.02 µM,
N=C(NN)c1ccc(C[C@H](NS(=O)(=O)c2ccc3cc4ccccc4cc3c2)C(=O)N2CCCCCC2)cc1,,0.001 µM,
NN=C(N)c1ccc(C[C@@H](NC(=O)CNS(=O)(=O)c2ccc3ccccc3c2)C(=O)N2CCCCC2)cc1,192 µM,5.37 µM,
